These results are taken from US9155693B2, “Solubilized magnolol analogs” (Colgate-Palmolive Company, priority 2011, dated 2015).

Data set [1] is classed as physicochemical. An excerpt: The PPG-1-PEG-9 lauryl glycol ether is capable of solubilizing up to 100 g per liter of neat propyl magnolol or isopropyl magnolol or up to 50 g per liter of butyl magnolol or isobutyl magnolol. In certain embodiments, the amount of PPG-1-PEG-9 lauryl glycol ether is at least 10 times the weight of the propyl magnolol or isopropyl magnolol in the composition. In certain embodiments, the amount of PPG-1-PEG-9 lauryl glycol ether is at least 20 times the weight of butyl or isobutyl magnolol in the composition.
PPG-1-PEG-9 lauryl glycol ether is available as Eumulgin™ L from Cognis Corporation.

The nature of data set [2]: Solubility of magnolol analogs in the combination of PPG-1-PEG-9 lauryl glycol ether, coceth-7 and PEG-40 hydrogenated castor oil (Eumulgin HPS). The data set is classed as physicochemical. The conditions noted are these: PPG-1-PEG-9 lauryl glycol ether in combination with coceth-7 and PEG-40 hydrogenated castor oil (Eumulgin HPS). The text has this: The PPG-1-PEG-9 lauryl glycol ether can also be included in combination with coceth-7 and PEG-40 hydrogenated castor oil. This combination is available as Eumulgin™ HPS from Cognis Corporation. When this combination is used, the solubility stays the same except for butyl magnolol. This combination solubilizes up to 100 g per liter of butyl magnolol as compared to up to 50 g per liter for PPG-1-PEG-9 lauryl glycol ether alone. In certain embodiments, the amount of this combination is at least 10 times the weight of butyl magnolol.

For `CCCc1ccc(O)c(-c2cc(CCC)ccc2O)c1` [propyl magnolol, 5,5′-di-n-propylbiphenyl-2,2′-diol], the “amount solubilized by PPG-1-PEG-9 lauryl glycol ether” value in data set [1] is given as “up to 100 g per liter”.

Take `CC(C)Cc1ccc(O)c(-c2cc(CC(C)C)ccc2O)c1` [isobutyl magnolol, 5,5′-di-isobutylbiphenyl-2,2′-diol]: in data set [1], the “amount solubilized by PPG-1-PEG-9 lauryl glycol ether” value was “up to 50 g per liter”.

Regarding `CCCCc1ccc(O)c(-c2cc(CCCC)ccc2O)c1` [butyl magnolol, 5,5′-di-n-butylbiphenyl-2,2′-diol], in data set [1], the “amount solubilized by PPG-1-PEG-9 lauryl glycol ether” value is “up to 50 g per liter”. Further, the “amount solubilized by the combination” value in data set [2] is “up to 100 g per liter”.

As to `CC(C)c1ccc(O)c(-c2cc(C(C)C)ccc2O)c1` [isopropyl magnolol, 5,5′-di-isopropylbiphenyl-2,2′-diol], the “amount solubilized by PPG-1-PEG-9 lauryl glycol ether” value in data set [1] is reported as “up to 100 g per liter”.
